The values below come from paper PMC9399069, “Imaging PARP with [^18F]rucaparib in pancreatic cancer models” (European Journal of Nuclear Medicine and Molecular Imaging, 2022).

Data set [1] concerns AsPC1 cells. The data set is described as follows: Uptake and retention of radiolabelled PARP inhibitors in AsPC1 cells treated with DNA-damaging reagents. It counts as cell-based, human. To be noted: 100 μM, 3 h, retention at 3 h. On the procedure: (§1) AsPC1 (1 × 10^5 cells/well) and PSN1 cells (7.5 × 10^4 cells/well) were exposed to methyl methanesulfonate (MMS) or temozolomide (TMZ) (100 μM, in a total of 270 μL growth medium) for 3 h at 37 °C. Additionally, [^18F]rucaparib (500 kBq, 3.6 GBq/μmol; [^TotalF]rucaparib final concentration: 301 nM) or [^18F]olaparib (400 kBq, 8.5 GBq/μmol; [^TotalF]olaparib final concentration: 300 nM) was added, and the cells were incubated at 37 °C for 30 min. Cell culture medium was removed, and cells were washed with PBS. For cell retention, fresh medium (300 μL) was added to the cells. Cells were then further incubated at 37°C for 3 h. Cell culture medium was removed, and the amount of ^18F in the cell lysates was measured as above. Protein expression of the cells after DNA-damaging treatments (or PARP inhibitors 10 μM) was performed using flow cytometry as above.

In data set [2] the test system is AsPC1 cells. The data set is described as follows: Protein expression by flow cytometry after PARP inhibitors or DNA-damaging reagents, AsPC1 cells. Particulars: 3 h. It counts as cell-based, human. How it is done:
(§2) Relative expression of PARP1, 2 and 3, ALDH2 and IMPDH2 was determined by flow cytometry. Cells (1 × 10^6 cells/well) were seeded in 96-well plates in growth medium, washed with FACS buffer (PBS, 2% FBS, 1 mM EDTA, 0.1% NaN3) and centrifuged at 500×g for 5 min. Immunostaining was performed using the Foxp3/transcription factor staining buffer set (eBioscience^TM, USA). Intracellular staining was conducted in permeabilisation buffer for 30 min at 4 °C in the dark using the following antibodies: AF488-conjugated anti-PARP-1 (1:100; sc-80070), AF594-conjugated anti-PARP-2 (1:100; sc-393310), anti-PARP-3 (1:100; sc-390771) or anti-PARP-tankyrase-1/2 (1:100; sc-365897) from Santa Cruz Biotechnology Inc. (USA), AF488-conjugated anti-IMPDH2 (1:500; ab-200770) from Abcam plc. (UK) and AF488-conjugated anti-ALDH2 (1:100, ABIN6817568) from Antibodies-online GmbH (UK). Fixable viability dye ef780 (1:4000; eBioscience^TM; 65-0865-14) was used for live and dead cells discrimination. Fixation of immunostained cells was performed for 15 min at room temperature. Flow cytometry was conducted on the CytoFLEX benchtop flow cytometer (Beckman Coulter, USA), with appropriate lasers and filters, positive and negative controls. Data were analysed using FlowJo^TM (Tree Star Inc., BD Biosciences, USA).
as §1
Background: A flow cytometer gives signals particle by particle.

Data set [3] concerns PSN1 cells. Nature of the data set: Uptake and retention of radiolabelled PARP inhibitors in PSN1 cells treated with DNA-damaging reagents. It counts as cell-based, human. Particulars: 100 μM, 3 h, retention at 3 h. How it is done:
as §1

The test system of data set [4] is PSN1 cells. The data set is described as follows: Protein expression by flow cytometry after PARP inhibitors or DNA-damaging reagents, PSN1 cells. It counts as cell-based, human. Particulars: 3 h. How it is done: as §2, §1
In a further data set the test system is breast cancer xenografts. More on the design: method as in PMID 27841728, PMID 27069769. To be noted: 1 h post-injection; cited from earlier work.
On the set-up of data set [5]: method as in PMID 25895168, PMID 26337803, PMID 27689533. Particulars: relatively low tumour uptake; cited from earlier work.
Data set [6] relates to PSN1 xenografts. The arrangement: method as in PMID 30389822. To be noted: cited from earlier work.
The subject of data set [7] is PSN1 xenografts. The data set is described as follows: Autoradiography of PSN1 tumour sections. The class given is in vivo, Balb/c nu/nu mice. Particulars: unlabelled drug 0.5 mg co-administered. How it is done:
Ex vivo localisation of [^18F]rucaparib in PSN1 xenografts was determined using autoradiography of tumour sections (10 μm). Uptake in the same tumour sections was compared to immunohistochemistry staining for PARP1, 2 and 3. Full details of procedures and protocols are provided in Supplemental Information.
PSN1 xenograft tissues were harvested and immediately flash-frozen using liquid nitrogen, and sectioned (10 µm) using a Leica CM1950 cryostat. Tissue sections were thaw-mounted onto Superfrost PLUS glass microscope slides (Menzel-Glaser, Thermo Scientific) and allowed to dry briefly at room temperature (RT). The slides were then fixed in 10% neutral buffered formalin […] (NBF) for 10 min at RT, dried, and exposed to a storage phosphor screen (PerkinElmer, Super Resolution, 12.5 x 25.2 cm) in a standard X-ray cassette for 15 h at 4 °C. The phosphor screen was then imaged using a Cyclone® Plus Storage Phosphor System (PerkinElmer).

The subject of data set [8] is PSN1 cells. The data set is described as follows: Cell retention of [18F]rucaparib and [18F]olaparib in PSN1 cells. The class given is cell-based, human. Particulars: for Efflux: fraction exiting cells: in the first 10–30 min, biphasic efflux. How it is done: (§3) AsPC1 (1 × 10^5 cells/well) and PSN1 cells (7.5 × 10^4 cells/well) were exposed to [^18F]rucaparib (100 kBq, 4.8 GBq/μmol; [^TotalF]rucaparib final concentration: 258 nM) or [^18F]olaparib (400 kBq, 2.8 GBq/μmol: [^TotalF]olaparib final concentration: 242 nM) in 24-well plates at 37 °C for 30 min. Cell culture medium was removed, and cells were washed with PBS, followed by the addition of fresh medium (300 μL). Cells were then further incubated at 37 °C. Cell culture medium was removed, and cells were washed with PBS at different times (0–3 h). Cells were lysed using RIPA buffer for 15 min at room temperature, and the amount of ^18F in the cell lysates was measured as above.

In data set [9] the test system is AsPC1 cells. The data set is described as follows: Cell retention of [18F]rucaparib and [18F]olaparib in AsPC1 cells. The class given is cell-based, human. To be noted: for Efflux: fraction exiting cells: in the first 10–30 min, biphasic efflux. On the procedure:
as §3

On the set-up of data set [10]: method as in PMID 24216281, PMID 26438157. To be noted: 10 mg/kg, administered orally or intraperitoneally; cited from earlier work.
The next data set deals with SW620 cells. More on the design: method as in PMID 24556618. To be noted: cited from earlier work.
The test system of a further data set is pancreatic cancer. Particulars: phase II, pancreatic cancer patients with BRCA1/2 and PALB2 variants; cited from earlier work.

With `Cn1nnc2c(C(N)=O)ncn2c1=O` [TMZ, temozolomide], the “Cell association and retention of [TotalF]rucaparib and [TotalF]olaparib after exposure to DNA-damaging reagent” value in the data set with AsPC1 cells [1] and with PSN1 cells [3] was “increased” throughout. The “Upregulation of PARP proteins” value is less than 10% with AsPC1 cells [2] (100 μM, flow cytometry) and less than 10% in the data set on PSN1 cells [4] (100 μM, flow cytometry). Moreover, the γH2AX expression result is listed as “increasing trend” in the data set with AsPC1 cells [2] (100 μM, not statistically significant in AsPC1 cells) and “increasing trend” with PSN1 cells [4] (100 μM).

`O=C1NCCn2c(-c3ccc(OCC[18F])cc3)nc3cccc1c32` [[^18F]FTT]: in the data set with breast cancer xenografts, the “Tumour-to-muscle (T/M) ratio” value was 1.2–1.9.

Consider `CC1=CC(C)=[N+]2C1=Cc1ccc(CCC(=O)N3CCN(C(=O)c4cc(Cc5n[nH]c(=O)c6ccccc56)ccc4F)CC3)n1[B-]2(F)[18F]` (centres unmarked) [[^18F]PARPi-FL], for which the Tumour uptake in [5] was less than 1 %ID/g.

As to `O=C(c1cc(Cc2n[nH]c(=O)c3ccccc23)ccc1[18F])N1CCN(C(=O)C2CC2)CC1` [[^18F]olaparib], in the data set with PSN1 xenografts [6] (PSN1 xenografts, 1 h post-injection), the Tumour uptake is listed as 3.16 ± 0.36 %ID/g. In the data set on PSN1 xenografts [6] (same xenograft mice), the Weighted blood half-life was 32.3 min.

For the molecule `O=C(c1cc(Cc2n[nH]c(=O)c3ccccc23)ccc1F)N1CCN(C(=O)C2CC2)CC1` [olaparib], the “18F signal of [18F]rucaparib in tumour sections from treated tumours” value in the data set on PSN1 xenografts [7] is reported as “significantly reduced”. Besides, the “Efflux: fraction exiting cells” value in the data set with PSN1 cells [8] and in the data set with AsPC1 cells [9] was “more than 50%” in each case.

As to `CNCc1ccc(-c2[nH]c3cc(F)cc4c3c2CCNC4=O)cc1` [rucaparib], in data set [10], the Blood half-life was 84 to 90 min. The “18F signal of [18F]rucaparib in tumour sections from treated tumours” value in the data set with PSN1 xenografts [7] is listed as “significantly reduced”. The “Weighted cellular efflux half-life” value in the data set on PSN1 cells [8] is 43.9 ± 3.2 min; in the data set with AsPC1 cells [9], 49.9 ± 6.8 min. In addition, the “Efflux: fraction exiting cells” value in the data set on PSN1 cells [8] and with AsPC1 cells [9] was “more than 50%” each time. Also, the “PARP1 expression (MFI) after exposure of PARP inhibitors” value with AsPC1 cells [2] (10 μM, flow cytometry) is reported as “upregulated”; with PSN1 cells [4] (10 μM, flow cytometry), “upregulated”. The Cellular efflux half-life in the data set with SW620 cells is 20 min. The “Fraction of patients who benefited from treatment” value in the data set with pancreatic cancer is given as “two-thirds”.
